According to ChEMBL document CHEMBL4229531, “Synthesis and evaluation of 1,2,3,4-tetrahydro-1-acridone analogues as potential dual inhibitors for amyloid-beta and tau aggregation” (Bioorg Med Chem, 2018):
The source made the active and inactive calls. The rule behind the calls is not given here.

Legend:
[1] = target: T1, Amyloid-beta precursor protein (Homo sapiens, UniProt P05067); assay: Inhibition of self-induced amyloid beta (1 to 42) (unknown origin) aggregation at 20 uM after 72 hrs by thioflavin T assay relative to control
[2] = Permeability of the compound at 100 ug/ml after 10 hrs by artificial membrane permeability assay; type: ADME; conditions: PAMPA; read-out: permeability
[3] = species: Homo sapiens; assay: Inhibition of recombinant full length tau 0N4R (unknown origin) aggregation expressed in Escherichia coli at 20 uM after 72 hrs by thioflavin S assay relative to control
[4] = Binding affinity to recombinant full length tau 0N4R (unknown origin) expressed in Escherichia coli by surface plasmon resonance assay; design: species or system Homo sapiens
[5] = test system: Microtubule-associated protein tau (Mus musculus), P10637 [P243L]; assay: Inhibition of congo red-induced EGFP-tagged Tau P301L mutant (unknown origin) aggregation expressed in HEK293T cells at 0.5 uM pretreated for 30 mins followed by congo red addition and measured after 24 hrs by DAPI staining-based fluorescence assay; type: cell-based; conditions: Homo sapiens
[6] = target: T1, Amyloid-beta precursor protein; assay: Inhibition of self-induced amyloid beta (1 to 42) (unknown origin) fibril formation at 20 uM after 24 hrs by uranyl acetate staining-based transmission electron microscopic method
[7] = test system: Microtubule-associated protein tau (Mus musculus), P10637 [P243L]; assay: Inhibition of congo red-induced EGFP-tagged Tau P301L mutant (unknown origin) aggregation expressed in HEK293T cells at 1 uM pretreated for 30 mins followed by congo red addition and measured after 24 hrs by DAPI staining-based fluorescence assay; type: cell-based; conditions: Homo sapiens
[8] = target: T1, Amyloid-beta precursor protein; assay: Binding affinity to amyloid beta (1 to 42) (unknown origin) by surface plasmon resonance assay
[9] = target: T1, Amyloid-beta precursor protein; assay: Inhibition of amyloid beta (1 to 42) (unknown origin) beta-sheet formation at 20 uM after 24 hrs by CD spectroscopic method
[10] = test system: HEK-293T; assay: Effect on proliferation of HEK293T cells transfected with EGFP-tagged Tau P301L mutant at 1 uM; type: cell-based; conditions: human
[11] = species: Homo sapiens; assay: Inhibition of fibril formation of recombinant full length tau 0N4R (unknown origin) expressed in Escherichia coli at 20 uM after 24 hrs by uranyl acetate staining-based transmission electron microscopic method

T1 sequence (P05067 whole entry): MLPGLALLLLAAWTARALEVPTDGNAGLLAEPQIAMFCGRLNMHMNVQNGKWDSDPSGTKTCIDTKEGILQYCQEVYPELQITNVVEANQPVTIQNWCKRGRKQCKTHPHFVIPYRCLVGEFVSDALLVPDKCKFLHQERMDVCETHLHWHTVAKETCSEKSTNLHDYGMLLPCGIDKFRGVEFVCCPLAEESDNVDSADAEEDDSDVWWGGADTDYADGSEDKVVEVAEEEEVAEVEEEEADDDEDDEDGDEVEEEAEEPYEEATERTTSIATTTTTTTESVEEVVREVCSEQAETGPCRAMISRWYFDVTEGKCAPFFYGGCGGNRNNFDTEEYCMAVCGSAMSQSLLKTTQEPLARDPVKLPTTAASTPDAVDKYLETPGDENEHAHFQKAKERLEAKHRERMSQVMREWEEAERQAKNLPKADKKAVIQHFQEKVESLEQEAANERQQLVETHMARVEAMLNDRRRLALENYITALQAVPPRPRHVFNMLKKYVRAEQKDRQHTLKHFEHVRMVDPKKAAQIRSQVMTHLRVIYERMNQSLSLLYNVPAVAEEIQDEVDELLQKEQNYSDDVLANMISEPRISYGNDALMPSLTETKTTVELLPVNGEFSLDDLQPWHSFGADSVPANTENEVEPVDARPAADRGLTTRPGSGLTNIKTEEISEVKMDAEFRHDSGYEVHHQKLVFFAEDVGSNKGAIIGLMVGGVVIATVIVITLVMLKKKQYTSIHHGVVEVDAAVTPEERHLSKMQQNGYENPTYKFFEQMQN
Sequence of Microtubule-associated protein tau (Mus musculus), P10637 [P243L] (P10637 whole entry P243L): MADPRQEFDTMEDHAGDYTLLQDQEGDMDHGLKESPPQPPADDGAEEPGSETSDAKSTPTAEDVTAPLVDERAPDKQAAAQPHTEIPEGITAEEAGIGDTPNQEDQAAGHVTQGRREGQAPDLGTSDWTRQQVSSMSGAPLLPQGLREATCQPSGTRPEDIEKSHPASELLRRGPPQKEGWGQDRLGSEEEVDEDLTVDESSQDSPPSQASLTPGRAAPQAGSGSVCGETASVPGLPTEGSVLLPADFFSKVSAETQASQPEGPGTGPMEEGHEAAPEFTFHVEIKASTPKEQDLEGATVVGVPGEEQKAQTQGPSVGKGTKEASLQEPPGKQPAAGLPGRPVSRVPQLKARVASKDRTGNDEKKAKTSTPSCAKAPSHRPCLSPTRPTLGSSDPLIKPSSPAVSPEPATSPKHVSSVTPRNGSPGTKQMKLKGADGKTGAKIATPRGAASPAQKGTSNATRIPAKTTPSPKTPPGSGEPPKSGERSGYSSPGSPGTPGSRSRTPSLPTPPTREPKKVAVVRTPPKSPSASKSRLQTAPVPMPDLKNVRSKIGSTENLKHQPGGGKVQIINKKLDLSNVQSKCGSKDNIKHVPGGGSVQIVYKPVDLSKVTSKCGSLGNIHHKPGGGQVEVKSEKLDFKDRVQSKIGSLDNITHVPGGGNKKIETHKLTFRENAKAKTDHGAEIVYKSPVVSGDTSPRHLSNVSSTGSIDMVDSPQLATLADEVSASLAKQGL

| SMILES | inhibition [1] | Papp at 10 h, 100 ug/ml [2] | inhibition [3] | also measured |
| --- | --- | --- | --- | --- |
| C[n+]1c2c(c(N)c3ccccc31)C(=O)/C(=C/c1cccc([N+](=O)[O-])c1)CC2.[I-] | 86.4% | 2.1 ×10⁻⁶ cm/s | 98.2% | – |
| C[n+]1c2c(c(N)c3ccccc31)C(=O)/C(=C\c1ccccc1)CC2.[I-] | 97.6% | 1.8 ×10⁻⁶ cm/s | 7.2% | – |
| Nc1c2c(nc3ccccc13)CC/C(=C\c1ccccc1)C2=O | 7.7% | 26.4 ×10⁻⁶ cm/s | 18.7% | – |
| C[n+]1c2c(c(N)c3ccccc31)C(=O)/C(=C/c1ccccc1)CC2.[I-] | 84.7% | 2.4 ×10⁻⁶ cm/s | 71.2% | – |
| O=C1/C(=C/c2ccccc2Cl)CCc2nc3ccccc3cc21 | 3.5% | 7.1 ×10⁻⁶ cm/s | 14.9% | – |
| COc1cccc(/C=C2\CCc3nc4ccccc4c(N)c3C2=O)c1 | 7.9% | 7.5 ×10⁻⁶ cm/s | 44.3% | – |
| Nc1c2c(nc3ccccc13)CC/C(=C/c1cccc(Cl)c1)C2=O | – | 15.6 ×10⁻⁶ cm/s | – | – |
| C[n+]1c2c(c(N)c3ccccc31)C(=O)/C(=C\c1cccc([N+](=O)[O-])c1)CC2.[I-] | 94.4% | 1.8 ×10⁻⁶ cm/s | 32% | – |
| C[n+]1c2c(c(N)c3ccccc31)C(=O)/C(=C\c1cccc3ccccc13)CC2.[I-] | 91.2% | 3.5 ×10⁻⁶ cm/s | 79.2% | – |
| CN(C)c1ccc2nc3ccc(N(C)C)cc3[s+]c2c1 [METHYLENE BLUE ANHYDROUS] | – | – | – | Kd [4]: 28.2 µM |
| Nc1c2c(nc3ccccc13)CC/C(=C\c1cccc3ccccc13)C2=O | 7.8% | 0.5 ×10⁻⁶ cm/s | -6.7% | – |
| Nc1c2c(nc3ccccc13)CC/C(=C\c1cccs1)C2=O | 14.5% | 7.2 ×10⁻⁶ cm/s | 11.9% | – |
| Nc1c2c(nc3ccccc13)CC/C(=C/c1cccc3ccccc13)C2=O | -6.8% | 49.5 ×10⁻⁶ cm/s | – | – |
| COc1ccc(/C=C2\CCc3nc4ccccc4c(N)c3C2=O)cc1 | -2% | 10.5 ×10⁻⁶ cm/s | 43.4% | – |
| C[n+]1c2c(c(N)c3ccccc31)C(=O)/C(=C\c1cccc(F)c1)CC2.[I-] | 89.1% | 2.7 ×10⁻⁶ cm/s | 23.3% | – |
| Nc1c2c(nc3ccccc13)CC/C(=C/c1cccs1)C2=O | – | 10.8 ×10⁻⁶ cm/s | 5.9% | – |
| C[n+]1c2c(c(N)c3ccccc31)C(=O)/C(=C/c1cccs1)CC2.[I-] | 99.5% | 1.7 ×10⁻⁶ cm/s | 95.3% | – |
| O=C1/C(=C/c2cccc(F)c2)CCc2nc3ccccc3cc21 | 7.2% | 17.2 ×10⁻⁶ cm/s | 14.7% | – |
| Nc1c2c(nc3ccccc13)CC/C(=C\C=C\c1ccccc1)C2=O | 2% | 1.3 ×10⁻⁶ cm/s | -3.8% | – |
| Nc1c2c(nc3ccccc13)CC/C(=C/c1cccc(F)c1)C2=O | – | 20.3 ×10⁻⁶ cm/s | – | – |
| Nc1c2c(nc3ccccc13)CC/C(=C/c1cccc([N+](=O)[O-])c1)C2=O | – | 9.1 ×10⁻⁶ cm/s | – | – |
| Nc1c2c(nc3ccccc13)CC/C(=C\c1ccccc1F)C2=O | 37% | 6.9 ×10⁻⁶ cm/s | 25.3% | – |

| SMILES | inhibition [1] | Papp at 10 h, 100 ug/ml [2] | inhibition [3] | also measured |
| --- | --- | --- | --- | --- |
| CN(C)c1ccc2nc3ccc(=[N+](C)C)cc-3sc2c1 | – | – | 80.1% | – |
| Nc1c2c(nc3ccccc13)CC/C(=C\c1ccco1)C2=O | 15.2% | 16.2 ×10⁻⁶ cm/s | 30.7% | – |
| Nc1c2c(nc3ccccc13)CC/C(=C\c1cccc(F)c1)C2=O | 20.3% | 5.3 ×10⁻⁶ cm/s | 4.9% | – |
| CN(C)c1ccc2c(c1)Sc1cc(N(C)C)ccc1N2 | – | – | – | inhibition [5]: 74.4% |
| Oc1ccc(/C=C/c2cc(O)cc(O)c2)cc1 | – | – | – | inhibition [6]: Active |
| C[n+]1c2c(c(N)c3ccccc31)C(=O)/C(=C/c1cccc(Cl)c1)CC2.[I-] | 91.9% | 4.1 ×10⁻⁶ cm/s | 98.3% | – |
| C[n+]1c2c(c(N)c3ccccc31)C(=O)/C(=C\c1cccs1)CC2.[I-] | 94.9% | 1.7 ×10⁻⁶ cm/s | 31.6% | – |
| Nc1c2c(nc3ccccc13)CCC(Cc1ccccc1)C2=O (stereo not given) | -4% | 13.9 ×10⁻⁶ cm/s | 10% | – |
| O=C1/C(=C/c2ccccc2F)CCc2nc3ccccc3cc21 | -0.5% | 8.3 ×10⁻⁶ cm/s | 2.9% | – |
| Nc1c2c(nc3ccccc13)CC/C(=C/c1ccccc1)C2=O | – | 13.3 ×10⁻⁶ cm/s | – | – |
| O=C1/C(=C/c2ccccc2)CCc2nc3ccccc3cc21 | -3.2% | 8.6 ×10⁻⁶ cm/s | 20.5% | – |
| C[n+]1c2c(c(N)c3ccccc31)C(=O)/C(=C/c1cccc(F)c1)CC2.[I-] | 98.7% | 3.6 ×10⁻⁶ cm/s | 86.3% | – |
| Nc1c2c(nc3ccccc13)CC/C(=C\c1ccccc1Cl)C2=O | 14.1% | 7.4 ×10⁻⁶ cm/s | -3.6% | – |
| Nc1c2c(nc3ccccc13)CC/C(=C\c1ccc(Cl)cc1)C2=O | 24.8% | 30.3 ×10⁻⁶ cm/s | 7.1% | – |
| Cc1c2c(nc3ccccc13)CC/C(=C\c1ccccc1)C2=O | 16.6% | 3.1 ×10⁻⁶ cm/s | 15.7% | – |
| Nc1c2c(nc3ccccc13)CC/C(=C\c1ccc([N+](=O)[O-])cc1)C2=O | 2.4% | 11.2 ×10⁻⁶ cm/s | -3.3% | – |
| Nc1c2c(nc3ccccc13)CC/C(=C\c1cccc([N+](=O)[O-])c1)C2=O | 8.2% | 3.3 ×10⁻⁶ cm/s | – | – |
| O=C1/C(=C/c2ccc([N+](=O)[O-])cc2)CCc2nc3ccccc3cc21 | 2.7% | 3.2 ×10⁻⁶ cm/s | 6.3% | – |
| C[n+]1c2c(c(N)c3ccccc31)C(=O)/C(=C\c1cccc(Cl)c1)CC2.[I-] | 105% | 4.6 ×10⁻⁶ cm/s | 15.4% | – |
| Nc1c2c(nc3ccccc13)CC/C(=C\c1cccc(Cl)c1)C2=O | 34.2% | 1.1 ×10⁻⁶ cm/s | -3.1% | – |
| O=C1/C(=C/c2cccc(Cl)c2)CCc2nc3ccccc3cc21 | 46.2% | 2 ×10⁻⁶ cm/s | 4.2% | – |
| C[n+]1c2c(c(N)c3ccccc31)C(=O)/C(=C/c1cccc3ccccc13)CC2.[I-] | 86.7% | 4.6 ×10⁻⁶ cm/s | 102% | inhibition [6]: Active; inhibition [7]: 62.6%; Kd [8]: 16 µM; inhibition [9]: Active; Kd [4]: 33.7 µM; Activity [10]: Non-Toxic; inhibition [11]: Active |
